Laboratory results taken from publication PMC8229862, “Elaiophylin Is a Potent Hsp90/ Cdc37 Protein Interface Inhibitor with K-Ras Nanocluster Selectivity” (Biomolecules, 2021).

Columns and labels:
[1] = biological target: T1, Hsp90 (N-terminal domain) (Homo sapiens, UniProt P07900); experiment: lysate-based split Renilla luciferase Hsp90/Cdc37 interaction assay; supported by co-immunoprecipitation; type: biochemical
T1 construct: gene HSP90AA1; N-terminal fragment of Hsp90 (NRL-N-Hsp90); with Cdc37

[2] = biological target: T2, Hsp90α (Homo sapiens, UniProt P07900); experiment: co-immunoprecipitation of Cdc37 with Hsp90α from cells treated with […] for […] h; type: cell-based
T2 construct: gene HSP90AA1; endogenous Hsp90 in MDA-MB-231 or MIA PaCa-2 cells; with Cdc37

Q: With `CC[C@@H]1[C@@H](C)O[C@@](O)([C@@H](C)[C@H](O)[C@H](C)[C@H]2OC(=O)/C=C/C=C/[C@H](C)[C@@H]([C@@H](C)[C@@H](O)[C@H](C)[C@@]3(O)C[C@@H](O[C@H]4C[C@H](O)[C@H](O)[C@H](C)O4)[C@H](CC)[C@@H](C)O3)OC(=O)/C=C/C=C/[C@@H]2C)C[C@H]1O[C@H]1C[C@H](O)[C@H](O)[C@H](C)O1` [elaiophylin] as the molecule, how does the IC50 [1] read?
A: The IC50 was 11 ± 4 µM.

Q: With `C/C1=C\[C@H](C)C[C@H](C)[C@H](Cc2cnco2)OC(=O)/C(C)=C/[C@H](C)C[C@H](C)[C@H](Cc2cnco2)OC1=O` [conglobatin A] as the molecule, how does the “co-immunoprecipitation of Cdc37 with Hsp90α from cells treated with 10 μM for 24” value [2] read?
A: Its value is “Both elaiophylin and conglobatin A treatment reduced the amount of co-precipitated Cdc37”.
